Assay results taken from US20240051944A1, “CRYSTALLINE FORM II OF MELANOCORTIN RECEPTOR AGONIST COMPOUND AND PREPARATION METHOD THEREFOR” (LG CHEM, LTD., priority 2020, published 2024).
“Also recorded” adds a separate entry of the source.

Legend:
Type in all cases: physicochemical
[1] = Stability assessment (HPLC) under accelerated and harsh storage conditions; settings: for Stability assessment, HPLC content: in % (unit assumed)
Procedure: About 10-30 mg of the sample was stored for 4 weeks in an open state under the accelerated condition (40° C., 75% RH) or in a sealed state under the harsh condition in an oven at 80° C. [table]

[2] = Dynamic vapor sorption (DVS) analysis
Procedure: DVS was measured using automated gravimetric vapor sorption analyzer equipped with Cahn D200 ultra-microbalance (DVS Intrinsic apparatus, Surface Measurement System Ltd., UK). First, a sample of 10-20 mg was put in a sample pan and hung on a hang-down wire, and measurement was started when the weight and humidity reached equilibrium. In one cycle, relative humidity was increased from 0% to 90% and then dropped back to 0%. Two cycles were carried out. The experiment was carried out in a way that the relative humidity was increased at 10% increment using a dm/dt method. The experiment was carried out at room temperature (25° C.)

[3] = Thermogravimetric analysis (TGA); settings: heated 30° C. to 350° C. at 10° C./min
Procedure: The TGA was measured using Mettler Toledo TGA/DSC 1 module. About 4-8 mg of the sample is weighed and put into a 100 μL Al crucible (flat-bottomed aluminum crucibles). Then, TGA measurement is performed while the sample is heated from 30° C. to 350° C. at a rate of 10° C./min. During the measurement, nitrogen gas is supplied to the inside of the instrument at a rate of 80 mL/min to prevent the inflow of oxygen and other gases. Data collection and evaluation were performed using the software STARe.

- Stability assessment, HPLC content ([1]; Accelerated condition (40° C./75% RH), open state, Day 3): 96.35
- Stability assessment, HPLC content ([1]; Accelerated condition (40° C./75% RH), open state, Week 1): 96.02
- Stability assessment, HPLC content ([1]; Accelerated condition (40° C./75% RH), open state, Week 2): 96.08
- Stability assessment, HPLC content ([1]; Accelerated condition (40° C./75% RH), open state, Week 4): 95.69
- Stability assessment, HPLC content ([1]; Harsh condition (80° C.), sealed state, Day 3): 96.54
- Stability assessment, HPLC content ([1]; Harsh condition (80° C.), sealed state, Week 1): 95.74
- Stability assessment, HPLC content ([1]; Harsh condition (80° C.), sealed state, Week 2): 94.82
- Stability assessment, HPLC content ([1]; Harsh condition (80° C.), sealed state, Week 4): 93.42
- Stability assessment, HPLC content ([1]; Initial): 96.01
- decrease in the content ([1]; harsh condition (closed state, 80° C.), 4 weeks): about 2.6%
- physical change after DVS (XRPD pattern vs initial) ([2]; XRPD after DVS analysis): no physical change occurred
- total weight gain (DVS) ([2]; between 0-90% RH, 25° C.): 1.25 % w/w
- weight loss before degradation (TGA) [3]: no weight loss was observed
- temperature up to which thermally stable (TGA) ([3]; error ±5° C.): up to 270 °C
Compound: CC(C)C(=O)N([C@H]1C[C@@H](C(=O)N2CCOCC2)N(C(=O)[C@@H]2CN(C(C)(C)C)C[C@H]2c2ccc(Cl)cc2)C1)[C@H]1CC[C@@H](C)CC1 [Example 1, N-((3S,5S)-1-((3S,4R)-1-(tert-butyl)-4-(4-chlorophenyl)pyrrolidine-3-carbonyl)-5-(morpholine-4-carbonyl)pyrrolidin-3-yl)-N-((1s,4R)-4-methylcyclohexyl)isobutyramide]
- chemical stability (HPLC), result in words ([1]; accelerated condition (40° C., 75% RH), 4 weeks, listed as crystalline form II): showed chemical stability for 4 weeks; also recorded: exhibited chemical stability for 4 weeks
